Experimental data published in patent US6869957B1, “Non-peptide tachykinin receptor antagonists” (Eli Lilly and Company, priority 1993, dated 2005).

Legend:
human NK-2 receptor = molecular target: T1, human NK-2 receptor (Homo sapiens, UniProt P21452); experiment: NK-2 Receptor Binding Assay ([125I]iodohistidyl-neurokinin A, CHO-hNK-2R membranes); details: for IC50: inhibits fifty percent of binding of [125I]iodohistidyl-neurokinin A to CHO-hNK-2R membranes
T1 construct: expressed in transfected cells; host or cells: CHO-hNK-2R cells (CHO-derived), membrane preparation
T1 sequence (P21452 1-398): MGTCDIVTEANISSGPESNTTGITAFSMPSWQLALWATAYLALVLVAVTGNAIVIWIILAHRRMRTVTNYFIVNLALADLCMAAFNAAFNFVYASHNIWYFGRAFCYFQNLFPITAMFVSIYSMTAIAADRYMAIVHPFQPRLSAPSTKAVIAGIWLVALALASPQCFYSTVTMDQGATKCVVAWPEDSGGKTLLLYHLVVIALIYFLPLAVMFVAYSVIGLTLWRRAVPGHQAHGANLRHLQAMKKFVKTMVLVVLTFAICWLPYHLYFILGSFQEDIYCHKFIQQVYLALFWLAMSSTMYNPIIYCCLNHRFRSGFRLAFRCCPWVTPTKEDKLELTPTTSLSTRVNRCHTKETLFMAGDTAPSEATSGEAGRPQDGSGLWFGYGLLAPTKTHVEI
Method: The biological activity of the compounds of the present invention was evaluated employing an initial screening assay which rapidly and accurately measured the binding of the tested compound to known NK-1 and NK-2 receptor sites. Assays useful for evaluating tachykinin receptor antagonists are well known in the art. See. e.g., J. Jukic, et al., Life Sciences, 49:1463-1469 (1991); N. Kucharczyk, et al., Journal of Medicinal Chemistry, 36:1654-1661 (1993); N. Rouissi, et al., Biochemical and Biophysical Research Communications, 176:894-901 (1991).
NK-2 Receptor Binding Assay
The CHO-hNK-2R cells, a CHO-derived cell line transformed with the human NK-2 receptor, expressing about 400,000 such receptors per cell, were grown in 75 cm^2 flasks or roller bottles in minimal essential medium (alpha modification) with 10% fetal bovine serum. The gene sequence of the human NK-2 receptor is given in N. P. Gerard, et al., Journal of Biological Chemistry, 265:20455-20462 (1990).
For preparation of membranes, 30 confluent roller bottle cultures were dissociated by washing each roller bottle with 10 ml of Dulbecco's phosphate buffered saline (PBS) without calcium and magnesium, followed by addition of 10 ml of enzyme-free cell dissociation solution (PBS-based, from Specialty Media, Inc.). After an additional 15 minutes, the dissociated cells were pooled and centrifuged at 1,000 RPM for 10 minutes in a clinical centrifuge. Membranes were prepared by homogenization of the cell pellets in 300 ml 50 mM Tris buffer, pH 7.4 with a Tekma® homogenizer for 10-15 seconds, followed by centrifugation at 12,000 RPM (20,000×g) for 30 minutes using a Beckman JA-14® rotor. The pellets were washed once using the above procedure. and the final pellets were resuspended in 100-120 ml 50 mM Tris buffer, pH 7.4, and 4 ml aliquots stored frozen at −70° C. The protein concentration of this preparation was 2 mg/ml.
For the receptor binding assay, one 4-ml aliquot of the CHO-hNK-2R membrane preparation was suspended in 40 ml of assay buffer containing 50 mM Tris, pH 7.4, 3 mM manganese chloride, 0.02% bovine serum albumin (BSA) and 4 μg/ml chymostatin. A 200 μl volume of the homogenate (40 μg protein) was used per sample. The radioactive ligand was [^125I]iodohistidyl-neurokinin A (New England Nuclear, NEX-252), 2200 Ci/mmol. The ligand was prepared in assay buffer at 20 nCi per 100 μl; the final concentration in the assay was 20 pM. Non-specific binding was determined using 1 μM eledoisin. Ten concentrations of eledoisin from 0.1 to 1000 nM were used for a standard concentration-response curve.
All samples and standards were added to the incubation in 10 μl dimethylsulfoxide (DMSO) for screening (single dose) or in 5 μl DMSO for IC50 determinations. The order of additions for incubation was 190 or 195 μl assay buffer, 200 μl homogenate, 10 or 5 μl sample in DMSO, 100 μl radioactive ligand. The samples were incubated 1 hr at room temperature and then filtered on a 48 well Brandel cell harvester through GF/B filters which had been presoaked for two hours in 50 mM Tris buffer, pH 7.7, containing 0.5% BSA. The filter was washed 3 times with approximately 3 ml of cold 50 mm Tris buffer, pH 7.7. The filter circles were then punched into 12×75 mm polystyrene tubes and counted in a gamma counter.

NK-1 receptor = molecular target: T2, NK-1 receptor (Homo sapiens, UniProt P25103); experiment: NK-1 Receptor Binding Assay (125I-labeled substance P, IM9 cells); details: for IC50: inhibits fifty percent of binding of 125I-substance P to IM9 cells
T2 construct: endogenous in cells; host or cells: IM9 cells (human cell line), whole cells
How it was run: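 Radioligand binding on human IM9 cells, ended by filtration over glass fiber filters presoaked in 0.1% polyethylenimine. Specific binding of labeled substance P defined with 20 nM unlabeled ligand.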

T2 sequence (P25103 whole entry): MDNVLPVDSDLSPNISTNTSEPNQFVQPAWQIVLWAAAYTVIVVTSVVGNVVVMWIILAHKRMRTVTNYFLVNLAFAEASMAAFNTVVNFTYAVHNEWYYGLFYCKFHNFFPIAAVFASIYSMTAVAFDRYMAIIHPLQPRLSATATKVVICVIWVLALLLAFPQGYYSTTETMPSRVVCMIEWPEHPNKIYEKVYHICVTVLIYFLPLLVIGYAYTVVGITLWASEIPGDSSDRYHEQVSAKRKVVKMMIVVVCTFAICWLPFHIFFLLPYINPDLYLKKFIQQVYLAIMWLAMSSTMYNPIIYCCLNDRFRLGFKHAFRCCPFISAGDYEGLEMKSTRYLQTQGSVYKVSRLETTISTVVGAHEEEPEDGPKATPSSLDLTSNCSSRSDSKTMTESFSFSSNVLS

IC50 (human NK-2 receptor) [nM]	IC50 (NK-1 receptor) [nM]	Structure (SMILES)	further results
3700	82	CC(=O)N(CC(Cc1c[nH]c2ccccc12)NC(=O)CN1CCC(N2CCCCC2)CC1)C(C)c1ccccc1 (centres unmarked) [Example 103]	
1600	0.62	CC(=O)N(CC(Cc1c[nH]c2ccccc12)NC(=O)CN1CCC(N2CCCCC2)CC1)C(C)c1ccccc1 (centres unmarked) [Example 104]	
	68	COc1ccccc1CN(CC(Cc1c[nH]c2ccccc12)NC(C)=O)C(C)=O (centres unmarked) [Example 106]	inhibition at 10 µM (human NK-2 receptor; @ 10 μM, read-out: NK-2 percent inhibition of binding): 33%
3500		CC(=O)NC(Cc1c[nH]c2ccccc12)CN(Cc1ccccc1)C(=O)CN1CCC(N2CCCCC2)CC1 (centres unmarked) [Example 108]	NK-1 percent inhibition of binding (NK-1 receptor; @ 1 μM): 76% @
2000	190	CC(=O)NC(Cc1c[nH]c2ccccc12)CN(Cc1ccccc1Cl)C(=O)CN1CCC(N2CCCCC2)CC1 (centres unmarked) [Example 109]	
1200	7.8	COc1ccccc1CN(CC(Cc1cn(C)c2ccccc12)NC(=O)CN1CCN(c2ccccc2)CC1)C(C)=O (centres unmarked) [Example 113]	
940	29.2	COc1ccccc1CN(CC(Cc1c[nH]c2cc(C)ccc12)NC(=O)CN1CCN(c2ccccc2)CC1)C(C)=O (centres unmarked) [Example 114]	
930	58	COc1ccccc1CN(CC(Cc1c[nH]c2ccc(Br)cc12)NC(=O)CN1CCN(c2ccccc2)CC1)C(C)=O (centres unmarked) [Example 116]	
2700	9.5	CC(=O)N(Cc1ccccc1)CC(Cc1c[nH]c2ccc(F)cc12)NC(=O)CN1CCC(N2CCCCC2)CC1 (centres unmarked) [Example 119]	
2500	27	COc1ccccc1CNCC(Cc1c[nH]c2cc(F)ccc12)NC(=O)CN1CCC(N2CCCCC2)CC1 (centres unmarked) [Example 123]	
1400	0.93	COc1ccccc1CN(CC(Cc1cn(C)c2ccccc12)NC(=O)CN1CCC(N2CCCCC2)CC1)C(C)=O (centres unmarked) [Example 124]	
2100	0.66	COc1ccccc1CN(CC(Cc1c[nH]c2cccc(C)c12)NC(=O)CN1CCC(N2CCCCC2)CC1)C(C)=O (centres unmarked) [Example 125]	
3400	2.8	COc1ccccc1CN(CC(Cc1c[nH]c2ccc(C)cc12)NC(=O)CN1CCC(N2CCCCC2)CC1)C(C)=O (centres unmarked) [Example 126]	
3000	7.3	COc1ccccc1CN(CC(Cc1c[nH]c2cc(C)ccc12)NC(=O)CN1CCC(N2CCCCC2)CC1)C(C)=O (centres unmarked) [Example 127]	
3900	420	COc1ccccc1CN(CC(NC(=O)CN1CCC(N2CCCCC2)CC1)c1ccccc1)C(C)=O (centres unmarked) [Example 146]	
430	196	COc1ccccc1CN(CC(NC(=O)CN1CCC(N2CCCCC2)CC1)c1ccc(Cl)c(Cl)c1)C(C)=O (centres unmarked) [Example 147]	
8500	24	COc1ccccc1CN(CC(Cc1ccccc1)NC(=O)CN1CCC(N2CCCCC2)CC1)C(C)=O (centres unmarked) [Example 148]	
12200		CN(CC(Cc1c[nH]c2ccccc12)NC(=O)CN1CCC(N2CCCCC2)CC1)C(=O)c1ccccc1 (centres unmarked) [Example 155]	NK-1 percent inhibition of binding (NK-1 receptor; @ 5 μM): 63% @
3800	450	CN(CC(Cc1c[nH]c2ccccc12)NC(=O)CN1CCN(C2CCCCC2)CC1)C(=O)c1ccccc1 (centres unmarked) [Example 158]	

Second part, the compound before the results:

Structure (SMILES)	IC50 (human NK-2 receptor) [nM]	IC50 (NK-1 receptor) [nM]	further results
COc1ccccc1CNCC(Cc1c[nH]c2ccccc12)NC(C)=O (centres unmarked) [Example 105]	15200	630	
COc1ccccc1CN(CC(Cc1c[nH]c2ccccc12)NC(C)=O)C(=O)CN1CCN(c2ccccc2)CC1 (centres unmarked) [Example 107]	420		NK-1 percent inhibition of binding (NK-1 receptor; @ 1 μM): 74% @
CC(=O)NC(Cc1c[nH]c2ccccc12)CN(CCc1ccccc1)C(=O)CN1CCN(c2ccccc2)CC1 (centres unmarked) [Example 110]	120	148	
COc1ccccc1CNCC(Cc1c[nH]c2ccc(Br)cc12)NC(=O)CN1CCN(c2ccccc2)CC1 (centres unmarked) [Example 111]	490	1200	
COc1ccccc1CNCC(Cc1cccc2ccccc12)NC(=O)CN1CCN(c2ccccc2)CC1 (centres unmarked) [Example 135]	430		NK-1 percent inhibition of binding (NK-1 receptor; @ 1 μM): 75% @
COc1ccccc1CNCC(Cc1ccc2ccccc2c1)NC(=O)CN1CCN(c2ccccc2)CC1 (centres unmarked) [Example 136]	710		NK-1 percent inhibition of binding (NK-1 receptor; @ 1 μM): 47% @
COc1ccccc1CN(CC(NC(=O)CN1CCN(c2ccccc2)CC1)c1ccccc1)C(C)=O (centres unmarked) [Example 138]	2500	770	
COc1ccccc1CN(CC(NC(=O)CN1CCN(c2ccccc2)CC1)c1ccc(Cl)c(Cl)c1)C(C)=O (centres unmarked) [Example 139]	580	396	
COc1ccccc1CN(CC(Cc1ccccc1)NC(=O)CN1CCN(c2ccccc2)CC1)C(C)=O (centres unmarked) [Example 140]	3000	3.1	
COc1ccccc1CN(CC(Cc1cccc2ccccc12)NC(=O)CN1CCN(c2ccccc2)CC1)C(C)=O (centres unmarked) [Example 141]	260	11	
COc1ccccc1CN(CC(Cc1ccc2ccccc2c1)NC(=O)CN1CCN(c2ccccc2)CC1)C(C)=O (centres unmarked) [Example 142]	830	8.6	
CC(C)(C)OC(=O)NCC(Cc1c[nH]c2ccccc12)NC(=O)CN1CCN(c2ccccc2)CC1 (centres unmarked) [Example 151, 1-t-butoxycarbonylamino-3-(1H-indol-3-yl)-2-[N-(2-((4-phenyl)piperazin-1-yl)acetyl)amino]propane]	1700	1400	
O=C(CN1CCN(c2ccccc2)CC1)NC(CNC(=O)c1ccccc1)Cc1c[nH]c2ccccc12 (centres unmarked) [Example 152]	2000	1200	
O=C(CN1CCN(c2ccccc2)CC1)NC(CNCC1CCCCC1)Cc1c[nH]c2ccccc12 (centres unmarked) [Example 153]	540	650	
CC(C)(C)OC(=O)NCC(=O)N(CC1CCCCC1)CC(Cc1c[nH]c2ccccc12)NC(=O)CN1CCN(c2ccccc2)CC1 (centres unmarked) [Example 154]	210		NK-1 percent inhibition of binding (NK-1 receptor; @ 1 μM): 76% @
CC(=O)NC1(c2ccccc2)CCN(CC(=O)NC(Cc2c[nH]c3ccccc23)CN(C)C(=O)c2ccccc2)CC1 (centres unmarked) [Example 156]	9500		NK-1 percent inhibition of binding (NK-1 receptor; @ 5 μM): 78% @
CN(CC(Cc1c[nH]c2ccccc12)NC(=O)CN1CCN(c2ccccc2)CC1)C(=O)c1ccccc1 (centres unmarked) [Example 157]	2900		NK-1 percent inhibition of binding (NK-1 receptor; @ 5 μM): 88% @
COc1ccccc1CN(CC(N)Cc1ccccc1)C(C)=O (centres unmarked) [Example 159]			NK-2 percent inhibition of binding (human NK-2 receptor; @ 10 μM): 11 @ %; NK-1 percent inhibition of binding (NK-1 receptor; @ 5 μM): 54% @
COc1ccccc1CN(CC(N)Cc1cn(C)c2ccccc12)C(C)=O (centres unmarked) [Example 160]	19000		NK-1 percent inhibition of binding (NK-1 receptor; @ 5 μM): 0% @
COc1ccccc1CN(CC(NC(=O)CBr)c1ccccc1)C(C)=O (centres unmarked) [Example 161]			NK-2 percent inhibition of binding (human NK-2 receptor; @ 10 μM): 0% @; NK-1 percent inhibition of binding (NK-1 receptor; @ 5 μM): 24% @
COc1ccccc1CN(CC(Cc1ccccc1)NC(=O)CBr)C(C)=O (centres unmarked) [Example 161a]	17600		NK-1 percent inhibition of binding (NK-1 receptor; @ 5 μM): 77% @
